Columns and labels:
HIV-1 = details: cited from earlier work
SRSF10 = SRSF10 (Homo sapiens, UniProt O75494); details: cited from earlier work
HepaRG cells = assay: Cytotoxicity, CellTiter-Glo Luminescent Cell Viability Assay; assay type: cell-based, Human; details: highest concentration tested 40 microM
Source text: FIG. 5. Anti-HBV properties of 1C8 in persistently infected dHepaRG cells: genotype D. Differentiated HepaRG were infected with HBV genotype D at a MOI of 100 vge/cell or HDV genotype 1 at a MOI of 10 vge/cell for 7 days before being treated trice every 2-3 days with indicated molecules at a concentration of 10 microM. A) Total DNA and RNA were extracted from cells and subjected to qPCR and RTqPCR to detect HBV cccDNA, total HBV RNA or pregenomic HBV RNA. B) HBs and HBe secreted antigens in supernatant were quantified by ELISA, whereas HBV DNA contained in virions was quantified by qPCR after viral nucleic acid extraction from supernatant. C) Intracellular HDV RNA was quantified by RTqPCR after total RNA extraction from cells. D) Viability was monitored in 1C8-treated (or control treated; puromycin is a positive toxic molecule) cells by CellTiter-Glo® luminescent cell viability assay. Results are the mean+SEM of n=3 performed with 3 different differentiations of HepaRG. Statistics were done by two-tailed Mann-Whitney test, with following significativity: *P<0.05, **P<0.01, ***P<0.001, ****P<0.0001. nd=not determined
Cytotoxicity was measured in HepaRG cells treated with drugs as in experimental schemes presented if FIG. 1 with the “CellTiter-Glo® Luminescent Cell Viability Assay” from Promega, by following manufacturer's instructions.

HBV genotype D = assay: HBV replication in persistently infected primary human hepatocytes (PHH); assay type: cell-based, Hepatitis B virus; details: 10 microM
Source text: FIG. 9. Effect of 1C8 on persistently infected primary human hepatocytes. Two different batches of PHH from two different donors were used in these experiments (Batch 1: panels A, B, and C; Batch 2: panels D, and E). A) PHH were infected with HBV genotype D at a MOI of 100 vge/cell for 4 days before being treated trice every 2-3 days with indicated molecules at a concentration of 10 microM. B) Intracellular total RNA were extracted from cells and subjected to RT-qPCR to detect HBV pgRNA and total HBV RNA. C) HBs and HBe secreted antigens in supernatant were quantified by ELISA. D) PHH were infected with HBV genotype D at a MOI of 100 vge/cell. 6 days after the infection, cells were treated five times with indicated molecules at a concentration of 10 microM. Supernatant was harvested after each treatment and cells were harvested at day 13 post infection. E) HBe and HBs secreted antigens in supernatant were quantified by ELISA. Results are the mean+SD of n=3 (panels A, B, and C) or n=4 (panels D and E).
Primary human hepatocytes (PHH) were freshly prepared from human liver resections obtained from the Centre Léon Bérard (Lyon) with French ministerial authorizations as previously described (Leycluse and Alexandre, 2010). […]
Secreted HBe and HBs antigens and intracellular HBV RNA were analyzed as described in EXAMPLE 1.

Sequence of SRSF10 (O75494 whole entry): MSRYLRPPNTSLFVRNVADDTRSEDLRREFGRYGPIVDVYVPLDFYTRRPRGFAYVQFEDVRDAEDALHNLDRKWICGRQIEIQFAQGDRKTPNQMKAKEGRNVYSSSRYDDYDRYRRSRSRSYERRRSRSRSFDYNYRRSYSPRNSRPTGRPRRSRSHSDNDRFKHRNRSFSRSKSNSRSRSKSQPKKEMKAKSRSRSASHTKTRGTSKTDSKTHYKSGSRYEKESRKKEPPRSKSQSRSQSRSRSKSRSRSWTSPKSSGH

Cn1ccc(=O)c(C(=O)Nc2nsc3ccc([N+](=O)[O-])cc23)c1 [1C8, 4-pyridinonebenzisothiazole carboxamide]
inhibition of HIV-1 replication (HIV-1): strong inhibitor | SRSF10 phosphorylation at serine 133 (SRSF10): inhibit SRSF10 phosphorylation at serine 133 | concentration toxic for cells (viability, CellTiter-Glo) (HepaRG cells): > 40 µM | amount of intracellular viral RNAs (total and pgRNA) (HBV genotype D): significant reduction | decrease of secreted viral antigens HBe and HBs (viral replication) (HBV genotype D; two donors, MOI 100 vge/cell): > 60%

From patent US20210052566A1, “METHODS FOR TREATING HEPATITIS B VIRUS (HBV) INFECTION” (INSERM (INSTITUT NATIONAL DE LA SANTÉ ET DE LA RECHERCHE …, priority 2018, published 2021)
